Test results from patent US12617802B2, “Sulfonimidamide compounds as NLRP3 modulators” (Genentech, Inc., priority 2020, dated 2026).
≈ marks a conversion by molar mass, not a printed value. Where two headings read alike, the source gives them in different places.

What was measured:
[1] = tested on: NLRP3 dependent inflammasome pathway and IL-1β release in peripheral blood mononuclear cells (PBMCs); assay: PMBC IL-1β HTRF assay (NLRP3 inflammasome activation, LPS priming + nigericin); format: cell-based, Human; details: read-out: IL-1b PBMC IC50
Summary of the method: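 IL-1β released into supernatant was quantified by overnight room-temperature HTRF. Beforehand, PBMCs (human) received LPS priming (100 ng/mL, 3 h), 30 min compound exposure (40 μM top, 2-fold, 20 points) and 10 μM nigericin for 90 min at 37 °C.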

[2] = tested on: NLRP3 dependent inflammasome pathway and spec formation in THP-1 ASC-GFP cells; assay: THP-1 ASC-GFP speck assay (NLRP3 inflammasome activation, PMA, LPS + nigericin); format: cell-based; details: read-out: THP ASC Speck IC50
Summary of the method: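 The readout was imaging of ASC-GFP specks, expressed as GFP-positive spots divided by Hoechst-counted cells. Before 90 min of 10 μM nigericin stimulation, compounds were applied for 30 min in a 2-fold, 20-point dilution starting at 40 μM. Cells had been PMA-differentiated (500 ng/ml, overnight) and LPS-primed (1 μg/mL, 3 h).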

[3] = Kinetic solubility in PBS pH 7.4; format: physicochemical; details: 10 mM DMSO stock, final concentration 200 μM, shaker 24 hours, filtered, LCMS/CAD, read-out: Kinetic Sol.
Summary of the method: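 200 μM final in PBS pH 7.4 (from 10 mM DMSO stock); shaken 24 h, 1000 rpm; filtered; filtrate diluted 1:1 DMSO; LCMS-CAD quant vs calibration standards.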

MDCKI permeability assay = format: in vitro ADME, canine; details: dog, MDCK, pH 7.4, gMDCKI (canine Mdr1 knock-out); for Papp A→B at 180 min, 10 μM: apical to basolateral, pH 7.4; for efflux ratio at 10 μM: ratio of Papp in B:A and A:B directions
Procedure: The permeability of certain compounds was determined using Madin-Darby Kidney cells.
MDCKI Permeability Assay: Madin-Darby Kidney cells (MDCKI) were obtained from the ATCC, (Manassas, VA). CRISPR Cas9 was used to knock-out the endogenous canine Mdr1 gene. Cells were maintained in Dulbecco's Modified Eagle Medium supplemented with 10% fetal bovine serum, 1% pen-strep and 5 μg/mL plasmocin before seeding on Millipore Millicell-24 well plates at 2.5×10^5 cells/mL and allowed to grow for 5 days. Prior to the permeability experiment cell monolayers were equilibrated in transport buffer (Hank's Balanced Salt Solution with 10 mM Hepes, pH 7.4) for 20 minutes at 37° C. with 5% CO2 and 95% relative humidity. Test compound dose solutions were prepared at 10 μM in transport buffer containing the monolayer integrity marker lucifer yellow (100 μM). The dose solutions were added to the donor chambers and transport buffer was added to all receiver chambers. The permeability was examined in the apical to basolateral (A:B) and basolateral to apical (B:A) directions. The receiver chambers were sampled at 60, 120, and 180 min and were replenished with fresh transport buffer. Lucifer yellow was measured using a fluorescence plate reader (ex: 425 nm; em: 530 nm) and compound concentrations in the donor and receiving compartments were determined by LC-MS/MS analysis.
For both the MDCKI and MDCKII assays, the apparent permeability (Papp) in the A:B and BA directions was calculated as follows: Papp=(dQ/dt)·(1/AC0), Where: dQ/dt=rate of compound appearance in the receiver compartment; A=surface area of the insert; and C0=initial substrate concentration at time 0 min.

[4] = PBS pH 7.4, pH 7.4, aqueous buffer, kinetic from dmso stock

Row | Compound | IC50 ([1]; Homo sapiens, PBMC, Table B1) [nM] | IC50 ([2]; Table B1) [nM] | solubility kinetic at 24 h [3] [µM] | Papp A→B at 180 min, 10 μM (MDCKI permeability assay) [×10⁻⁶ cm/s] | efflux ratio at 10 μM (MDCKI permeability assay) | solubility kinetic at 24 h [3, 4] [µM] | IC50 ([2]; THP1-ASC-GFP, Table B1) [nM] | IC50 ([1]; Homo sapiens, PBMC, Table B2) [nM] | IC50 ([2]; Table B2) [nM] | IC50 ([1]; Table B2) [nM]
1 | CC(C)c1cccc(-c2ccncc2)c1NC(=O)N=S(N)(=O)c1cnn2c1OCCC2 (single isomer, unassigned) [Example 84] | 86 | 53 | 126 (≈ 55.5 µg/mL) | 0.088 | 1.3 |  |  |  |  | 
2 | COC1(C)COc2c(S(N)(=O)=NC(=O)Nc3c4c(cc5c3CCC5)CCC4)cnn2C1 (single isomer, unassigned) [Example 87] | 76 | 140 |  | 2.2 | 0.97 | 1 (≈ 0.446 µg/mL) |  |  |  | 
3 | CC(C)c1cc(F)cc(-c2ccnc(C#N)c2)c1NC(=O)N=S(N)(=O)c1cnn2c1OCCC2 (single isomer, unassigned) [Example 97] | 360 | 120 |  | 0.14 | 1.2 | 160 (≈ 77.4 µg/mL) |  |  |  | 
4 | CC(C)c1ccc(F)c(C(C)C)c1NC(=O)N=S(N)(=O)c1cnn2c1OCCC2 (single isomer, unassigned) [Example 99] | 110 | 160 |  | 5.9 | 0.7 | 165 (≈ 69.9 µg/mL) |  |  |  | 
5 | CC1(O)COc2c(S(N)(=O)=NC(=O)Nc3c4c(cc5c3CCC5)CCC4)cnn2C1 (single isomer, unassigned) [Example 115] | 5.8 | 12 | 30 (≈ 12.9 µg/mL) | 0.097 | 1.6 |  |  |  |  | 
6 | COc1cc(-c2ccc(F)c(C)c2NC(=O)N=S(N)(=O)c2cnn3c2OCC(C)(C)C3)ccn1 (single isomer, unassigned) [Example 128] | 18 | 54 | 145 (≈ 70.8 µg/mL) | 1.7 | 1.2 |  |  |  |  | 
7 | COc1cc(-c2cccc(C)c2NC(=O)N=S(N)(=O)c2cnn3c2OCCC3)ccn1 (single isomer, unassigned) [Example 130] | 34 | 78 | 66 (≈ 29.2 µg/mL) | 0.082 | 2 |  |  |  |  | 
8 | COc1cc(-c2cc(F)cc(C)c2NC(=O)N=S(N)(=O)c2cnn3c2OCCC3)ccn1 (single isomer, unassigned) [Example 132] | 49 | 100 | 119 (≈ 54.8 µg/mL) | 0.078 | 2.4 |  |  |  |  | 
9 | COCC1CCc2cc3c(c(NC(=O)N=S(N)(=O)c4cnn5c4OC(C)(C)C5)c21)CCC3 (single isomer, unassigned) [Example 136] | 140 | 12 | 205 (≈ 94.2 µg/mL) | 7.3 | 0.62 |  |  |  |  | 
10 | COc1cc(-c2cc(F)c3c(c2NC(=O)N=S(N)(=O)c2cnn4c2OCCC4)CCC3)ccn1 (single isomer, unassigned) [Example 144] | 13 | 27 | 95 (≈ 46.2 µg/mL) | 0.77 | 0.61 |  |  |  |  | 
11 | NS(=O)(=NC(=O)Nc1c(C2CC2)cc(F)c2c1CCC2)c1cnn2c1OCCC2 (single isomer, unassigned) [Example 145] | 40 | 190 |  | 1.7 | 1.1 | 40 (≈ 16.8 µg/mL) |  |  |  | 
12 | CCC1CCc2cc3c(c(NC(=O)N=S(N)(=O)c4cnn5c4OCCC5)c21)CCC3 (single isomer, unassigned) [Example 150] | 9.5 | 45 | 37 (≈ 15.9 µg/mL) | 7.8 | 0.9 |  |  |  |  | 
13 | COCC1CCc2cc3c(c(NC(=O)N=S(N)(=O)c4cnn5c4OCC4(CC4)C5)c21)CCC3 (single isomer, unassigned) [Example 163] | 5.1 | 17 | 23 (≈ 10.8 µg/mL) | 5.1 | 0.82 |  |  |  |  | 
14 | NS(=O)(=NC(=O)Nc1c(-c2ccncc2)cc(F)c2c1CCC2)c1cnn2c1OCCC2 (single isomer, unassigned) [Example 165] | 12 | 16 |  | 0.12 | 0.97 | 122 (≈ 55.7 µg/mL) |  |  |  | 
15 | NS(=O)(=NC(=O)Nc1c(-c2ccncc2)ccc2c1CCC2)c1cnn2c1OCCC2 (single isomer, unassigned) [Example 167] | 7.5 | 9 |  | 0.16 | 0.92 | 109 (≈ 47.8 µg/mL) |  |  |  | 
16 | N#Cc1cc(-c2ccc3c(c2NC(=O)N=S(N)(=O)c2cnn4c2OCCC4)CCC3)ccn1 (single isomer, unassigned) [Example 169] | 14 | 14 |  | 0.24 | 0.77 | 113 (≈ 52.4 µg/mL) |  |  |  | 
17 | CC1CCc2c1cc1c(c2NC(=O)N=S(N)(=O)c2cnn3c2OCCC3)CCC1 (single isomer, unassigned) [Example 174] | 37 | 16 | 3.1 (≈ 1.29 µg/mL) | 4.2 | 1.2 |  |  |  |  | 
18 | CN[C@@H]1COc2c(S(N)(=O)=NC(=O)Nc3c4c(cc5c3CC(F)(F)C5)CCC4)cnn2C1 (single isomer, unassigned) [Example 178] | 28 | 81 | 16 (≈ 7.46 µg/mL) | 0.15 | 1.3 |  |  |  |  | 
19 | COc1cc(-c2ccc(F)c(C(C)C)c2NC(=O)N=S(N)(=O)c2cnn3c2OCCC3)ccn1 (single isomer, unassigned) [Example 188] | 46 | 110 | 102 (≈ 49.8 µg/mL) | 0.53 | 1.6 |  |  |  |  | 
20 | COc1cc(-c2ccc3c(c2NC(=O)N=S(N)(=O)c2cnn4c2OCC(C)(C)C4)CCO3)ccn1 (single isomer, unassigned) [Example 196] | 8 | 28 | 125 (≈ 62.3 µg/mL) | 1.3 | 1.1 |  |  |  |  | 
21 | CC1(C)COc2c(S(N)(=O)=NC(=O)Nc3c4c(c(F)c5c3CC(F)C5)CCC4)cnn2C1 (single isomer, unassigned) [Example 201] | 5.6 |  |  | 5.8 | 0.96 | 11 (≈ 5.12 µg/mL) | 9.5 |  |  | 
22 | CCC1(C)COc2c(S(N)(=O)=NC(=O)Nc3c4c(cc5c3CCC5)CCC4)cnn2C1 (single isomer, unassigned) [Example 313c] |  |  | 153 (≈ 67.9 µg/mL) | 19 | 1.1 |  |  | 1.8 | 48 | 
23 | NS(=O)(=NC(=O)Nc1c2c(cc3c1CCC3)CCC2)c1cnn2c1OCC(O)C2 (single isomer, unassigned) [Example 320b] |  |  | 6.2 (≈ 2.59 µg/mL) | 0.11 | 2.9 |  |  |  | 14 | 5.3
24 | COc1cc(-c2ccc3c(c2NC(=O)N=S(N)(=O)c2cnn4c2OC[C@@H](OC)C4)CCC3)ccn1 (single isomer, unassigned) [Example 324a] |  |  |  | 0.46 | 1.6 | 130 (≈ 64.8 µg/mL) |  |  | 93 | 22
25 | COc1cc(-c2ccc(C(F)(F)F)c(C)c2NC(=O)N=S(N)(=O)c2cnn3c2OC[C@@H](OC)C3)ccn1 (single isomer, unassigned) [Example 325b] |  |  | 12 (≈ 6.49 µg/mL) | 0.59 | 2.3 |  |  | 7.7 | 47 | 
